Data reported in ChEMBL document CHEMBL1201862, “PubChem BioAssay data set” (2004).
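Interpolation was linear, between the two tested concentrations surrounding the appropriate level; five concentrations were tested over 48 hours in 96-well plates. At the GI50, growth is halved.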 Calls of active or inactive are those of the source. Rule as the data show it: active = GI50 up to about 1.1 µM and inactive = higher.

Assays:
Assay in all cases: NCI-60 cell line screen, 48 h
786-0 = tested on: 786-0
A498 = tested on: A498
A549 = tested on: A549
ACHN = tested on: ACHN
BT-549 = tested on: BT-549
CAKI-1 = tested on: CAKI-1
CCRF-CEM = tested on: CCRF-CEM
COLO 205 = tested on: COLO 205
DU-145 = tested on: DU-145
EKVX = tested on: EKVX
HCC 2998 = tested on: HCC 2998
HCT-116 = tested on: HCT-116
HCT-15 = tested on: HCT-15
HL-60 = tested on: HL-60
HOP-62 = tested on: HOP-62
HOP-92 = tested on: HOP-92
HT-29 = tested on: HT-29
Hs-578T = tested on: Hs-578T
IGROV-1 = tested on: IGROV-1
K562 = tested on: K562
KM12 = tested on: KM12
LOX IMVI = tested on: LOX IMVI
M14 = tested on: M14
MCF7 = tested on: MCF7
MDA-MB-231 = tested on: MDA-MB-231
MDA-MB-435 = tested on: MDA-MB-435
MDA-N = tested on: MDA-N
MOLT-4 = tested on: MOLT-4
Malme-3M = tested on: Malme-3M
NCI-H226 = tested on: NCI-H226
NCI-H23 = tested on: NCI-H23
NCI-H460 = tested on: NCI-H460
NCI-H522 = tested on: NCI-H522
NCI/ADR-RES = tested on: NCI/ADR-RES
OVCAR-3 = tested on: OVCAR-3
OVCAR-4 = tested on: OVCAR-4
OVCAR-5 = tested on: OVCAR-5
OVCAR-8 = tested on: OVCAR-8
PC-3 = tested on: PC-3
RPMI-8226 = tested on: RPMI-8226
SF-268 = tested on: SF-268
SF-295 = tested on: SF-295
SF-539 = tested on: SF-539
SK-MEL-28 = tested on: SK-MEL-28
SK-MEL-2 = tested on: SK-MEL-2
SK-MEL-5 = tested on: SK-MEL-5
SK-OV-3 = tested on: SK-OV-3
SN12C = tested on: SN12C
SNB-19 = tested on: SNB-19
SNB-75 = tested on: SNB-75
SR = tested on: SR
SW-620 = tested on: SW-620
T47D = tested on: T47D
TK-10 = tested on: TK-10
U-251 = tested on: U-251
UACC-257 = tested on: UACC-257
UACC-62 = tested on: UACC-62
UO-31 = tested on: UO-31
RXF 393 = tested on: RXF 393

C/C(=N\NC(=S)N1CCOCC1)c1nc2cccnc2[nH]1
GI50 (786-0): > 10 µM (inactive)
GI50 (A498): > 100 µM (inactive)
GI50 (A549): 30.7 µM (inactive)
GI50 (ACHN): 25.4 µM (inactive)
GI50 (BT-549): 11.2 µM (inactive)
GI50 (CAKI-1): 66.8 µM (inactive)
GI50 (CCRF-CEM): 30.3 µM (inactive)
GI50 (COLO 205): 36.9 µM (inactive)
GI50 (DU-145): 39.9 µM (inactive)
GI50 (EKVX): 19.5 µM (inactive)
GI50 (HCC 2998): 78.3 µM (inactive)
GI50 (HCT-116): 27.8 µM (inactive)
GI50 (HCT-15): 53.5 µM
GI50 (HL-60): 24.5 µM (inactive)
GI50 (HOP-62): 24.9 µM (inactive)
GI50 (HOP-92): 14.1 µM (inactive)
GI50 (HT-29): 37.2 µM (inactive)
GI50 (Hs-578T): 39.2 µM (inactive)
GI50 (IGROV-1): 47.1 µM (inactive)
GI50 (K562): 51.9 µM (inactive)
GI50 (KM12): 67 µM (inactive)
GI50 (LOX IMVI): 29.4 µM (inactive)
GI50 (M14): 68.2 µM (inactive)
GI50 (MCF7): 30.5 µM (inactive)
GI50 (MDA-MB-231): 28.9 µM (inactive)
GI50 (MDA-MB-435): > 100 µM (inactive)
GI50 (MDA-N): > 100 µM (inactive)
GI50 (MOLT-4): 32.2 µM (inactive)
GI50 (Malme-3M): > 100 µM (inactive)
GI50 (NCI-H226): 38.5 µM (inactive)
GI50 (NCI-H23): 35.2 µM (inactive)
GI50 (NCI-H460): 31.4 µM (inactive)
GI50 (NCI-H522): 18.8 µM (inactive)
GI50 (NCI/ADR-RES): 80.5 µM (inactive)
GI50 (OVCAR-3): 31 µM (inactive)
GI50 (OVCAR-4): 13.7 µM (inactive)
GI50 (OVCAR-5): 59.6 µM (inactive)
GI50 (OVCAR-8): 21.4 µM (inactive)
GI50 (PC-3): 27.9 µM (inactive)
GI50 (RPMI-8226): 42.6 µM (inactive)
GI50 (SF-268): 24.8 µM (inactive)
GI50 (SF-295): 23.8 µM (inactive)
GI50 (SF-539): 19.3 µM (inactive)
GI50 (SK-MEL-28): 74.1 µM (inactive)
GI50 (SK-MEL-2): 17.9 µM (inactive)
GI50 (SK-MEL-5): 27.6 µM (inactive)
GI50 (SK-OV-3): 36.6 µM (inactive)
GI50 (SN12C): 74 µM (inactive)
GI50 (SNB-19): 21.9 µM (inactive)
GI50 (SNB-75): 18.2 µM (inactive)
GI50 (SR): 49.5 µM (inactive)
GI50 (SW-620): 43 µM (inactive)
GI50 (T47D): 29.4 µM (inactive)
GI50 (TK-10): 31.8 µM (inactive)
GI50 (U-251): 21.6 µM (inactive)
GI50 (UACC-257): 26 µM (inactive)
GI50 (UACC-62): 37.7 µM (inactive)
GI50 (UO-31): 17.5 µM (inactive)

C=C(C)C(=O)CC[C@@H](C)[C@H]1[C@@H](OC2OC(CO)C(O)C(O)C2O)C[C@@]2(C)[C@@H]3C[C@H](O)C4C(C)(C)[C@@H](OC5OC(CO)C(O)C(O)C5O)CC[C@@]45C[C@@]35CC[C@]12C (stereo partly specified)
GI50 (786-0): > 100 µM (inactive)
GI50 (A498): > 100 µM (inactive)
GI50 (A549): > 100 µM (inactive)
GI50 (ACHN): > 100 µM (inactive)
GI50 (BT-549): 36.6 µM (inactive)
GI50 (CAKI-1): 66.4 µM (inactive)
GI50 (CCRF-CEM): 64.9 µM (inactive)
GI50 (COLO 205): 92 µM (inactive)
GI50 (DU-145): > 100 µM (inactive)
GI50 (EKVX): > 100 µM (inactive)
GI50 (HCC 2998): 47 µM (inactive)
GI50 (HCT-116): > 100 µM (inactive)
GI50 (HCT-15): > 100 µM
GI50 (HL-60): 19.7 µM (inactive)
GI50 (HOP-62): > 100 µM (inactive)
GI50 (HOP-92): > 100 µM (inactive)
GI50 (HT-29): > 100 µM (inactive)
GI50 (Hs-578T): 91 µM (inactive)
GI50 (IGROV-1): > 100 µM (inactive)
GI50 (K562): 90.6 µM (inactive)
GI50 (KM12): > 100 µM (inactive)
GI50 (LOX IMVI): > 100 µM (inactive)
GI50 (M14): > 100 µM (inactive)
GI50 (MCF7): > 100 µM (inactive)
GI50 (MDA-MB-231): > 100 µM (inactive)
GI50 (MDA-MB-435): 68.9 µM (inactive)
GI50 (MDA-N): 24.6 µM (inactive)
GI50 (MOLT-4): 62.1 µM (inactive)
GI50 (Malme-3M): > 100 µM (inactive)
GI50 (NCI-H23): 87.3 µM (inactive)
GI50 (NCI-H460): 45.8 µM (inactive)
GI50 (NCI-H522): 80.4 µM (inactive)
GI50 (NCI/ADR-RES): > 100 µM (inactive)
GI50 (OVCAR-3): > 100 µM (inactive)
GI50 (OVCAR-4): > 100 µM (inactive)
GI50 (OVCAR-5): > 100 µM (inactive)
GI50 (OVCAR-8): > 100 µM (inactive)
GI50 (PC-3): > 100 µM (inactive)
GI50 (RPMI-8226): > 100 µM (inactive)
GI50 (SF-268): > 100 µM (inactive)
GI50 (SF-295): 71.6 µM (inactive)
GI50 (SF-539): 89.9 µM (inactive)
GI50 (SK-MEL-28): > 100 µM (inactive)
GI50 (SK-MEL-2): > 100 µM (inactive)
GI50 (SK-MEL-5): 46.6 µM (inactive)
GI50 (SK-OV-3): > 100 µM (inactive)
GI50 (SN12C): 68.1 µM (inactive)
GI50 (SNB-19): 48.8 µM (inactive)
GI50 (SNB-75): > 100 µM (inactive)
GI50 (SR): 71.1 µM (inactive)
GI50 (SW-620): > 100 µM (inactive)
GI50 (T47D): > 100 µM (inactive)
GI50 (TK-10): > 100 µM (inactive)
GI50 (U-251): > 100 µM (inactive)
GI50 (UACC-257): > 100 µM (inactive)
GI50 (UACC-62): > 100 µM (inactive)
GI50 (UO-31): > 100 µM (inactive)

C=CCOC(=O)C1C2OC3(C(C(=O)OC)=C2C(=O)OC)c2ccccc2CCC13 (stereo unspecified)
GI50 (786-0): > 10 µM (inactive)
GI50 (A498): > 10 µM (inactive)
GI50 (A549): > 10 µM (inactive)
GI50 (ACHN): > 10 µM (inactive)
GI50 (BT-549): > 10 µM (inactive)
GI50 (CAKI-1): > 10 µM (inactive)
GI50 (CCRF-CEM): > 10 µM (inactive)
GI50 (COLO 205): > 10 µM (inactive)
GI50 (DU-145): > 10 µM (inactive)
GI50 (EKVX): > 10 µM (inactive)
GI50 (HCC 2998): > 10 µM (inactive)
GI50 (HCT-116): > 10 µM (inactive)
GI50 (HCT-15): > 10 µM
GI50 (HL-60): > 10 µM (inactive)
GI50 (HOP-62): > 10 µM (inactive)
GI50 (HT-29): > 10 µM (inactive)
GI50 (Hs-578T): > 10 µM (inactive)
GI50 (IGROV-1): > 10 µM (inactive)
GI50 (K562): > 10 µM (inactive)
GI50 (KM12): > 10 µM (inactive)
GI50 (LOX IMVI): > 10 µM (inactive)
GI50 (M14): > 10 µM (inactive)
GI50 (MCF7): > 10 µM (inactive)
GI50 (MDA-MB-231): > 10 µM (inactive)
GI50 (MDA-MB-435): > 10 µM (inactive)
GI50 (MDA-N): > 10 µM (inactive)
GI50 (MOLT-4): > 10 µM (inactive)
GI50 (Malme-3M): > 10 µM (inactive)
GI50 (NCI-H226): > 10 µM (inactive)
GI50 (NCI-H23): > 10 µM (inactive)
GI50 (NCI-H460): > 10 µM (inactive)
GI50 (NCI/ADR-RES): > 10 µM (inactive)
GI50 (OVCAR-3): > 10 µM (inactive)
GI50 (OVCAR-4): > 10 µM (inactive)
GI50 (OVCAR-5): > 10 µM (inactive)
GI50 (OVCAR-8): > 10 µM (inactive)
GI50 (PC-3): > 10 µM (inactive)
GI50 (RPMI-8226): > 10 µM (inactive)
GI50 (RXF 393): > 10 µM (inactive)
GI50 (SF-268): > 10 µM (inactive)
GI50 (SF-295): > 10 µM (inactive)
GI50 (SF-539): > 10 µM (inactive)
GI50 (SK-MEL-28): > 10 µM (inactive)
GI50 (SK-MEL-2): > 10 µM (inactive)
GI50 (SK-MEL-5): > 10 µM (inactive)
GI50 (SK-OV-3): > 10 µM (inactive)
GI50 (SN12C): > 10 µM (inactive)
GI50 (SNB-19): > 10 µM (inactive)
GI50 (SR): > 10 µM (inactive)
GI50 (SW-620): > 10 µM (inactive)
GI50 (T47D): > 10 µM (inactive)
GI50 (TK-10): > 10 µM (inactive)
GI50 (U-251): > 10 µM (inactive)
GI50 (UACC-257): > 10 µM (inactive)
GI50 (UACC-62): > 10 µM (inactive)
GI50 (UO-31): > 10 µM (inactive)
